Measured values as given in patent US20120190690A1, “E[…] THE TREATMENT OF WEIGHT DISORDERS” (MERZ PHARMA GmbH & CO. KGaA, priority 2009, published 2012).
Entries after “also recorded” stand apart in the source; their conditions may differ.

Experiments:
[1] = molecular target: T1, human serotonin 5-HT1a receptor (Homo sapiens, UniProt P08908); assay: GTPγS assay, recombinant CHO-K1 membranes, agonist testing; assay type: biochemical; conditions: human recombinant cell line; FIG. 1
T1 construct: expressed in transfected cells; host or cells: CHO-K1
T1 sequence (P08908 1-422): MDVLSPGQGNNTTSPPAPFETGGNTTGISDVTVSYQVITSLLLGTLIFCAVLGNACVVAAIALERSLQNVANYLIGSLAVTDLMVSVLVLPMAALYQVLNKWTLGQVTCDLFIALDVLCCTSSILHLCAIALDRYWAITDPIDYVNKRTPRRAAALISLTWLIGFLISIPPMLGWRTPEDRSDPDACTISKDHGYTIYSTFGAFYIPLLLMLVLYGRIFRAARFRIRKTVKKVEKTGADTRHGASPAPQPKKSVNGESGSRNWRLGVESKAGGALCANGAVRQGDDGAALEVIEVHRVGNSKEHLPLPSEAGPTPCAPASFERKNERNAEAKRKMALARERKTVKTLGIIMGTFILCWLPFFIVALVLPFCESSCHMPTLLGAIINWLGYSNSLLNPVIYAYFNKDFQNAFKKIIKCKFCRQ
Method: (§1) Eltoprazine was tested for activity on the human serotonin 5-HT1a and 5-HT1b receptors using a GTPγS assay. Recombinant membranes obtained from CHO-K1 cells expressing either the 5-HT1a or 5-HT1b receptors were mixed with GDP (volume:volume) and incubated for at least 15 min on ice. In parallel, GTPγ[35S] was mixed with the beads (volume:volume) just before starting the reaction. The following reagents were successively added in the wells of an Optiplate (Perkin Elmer): 50 μl of test compound, 20 μl of the membranes:GDP mix, 10 μl of assay buffer (for agonist testing) and 20 μl of the GTPγ[35S]:beads mix. The plates were covered with a top seal, shaken on an orbital shaker for 2 min, and then incubated for 1 h at room temperature. Then the plates were centrifuged for 10 min at 2000 rpm, incubated at room temperature 1 h and counted for 1 min/well with a PerkinElmer TopCount reader.

[2] = molecular target: T2, human serotonin 5-HT1b receptor (Homo sapiens, UniProt P28222); assay: as above; assay type: biochemical; conditions: human recombinant cell line; FIG. 1
T2 construct: expressed in transfected cells; host or cells: CHO-K1
T2 sequence (P28222 whole entry): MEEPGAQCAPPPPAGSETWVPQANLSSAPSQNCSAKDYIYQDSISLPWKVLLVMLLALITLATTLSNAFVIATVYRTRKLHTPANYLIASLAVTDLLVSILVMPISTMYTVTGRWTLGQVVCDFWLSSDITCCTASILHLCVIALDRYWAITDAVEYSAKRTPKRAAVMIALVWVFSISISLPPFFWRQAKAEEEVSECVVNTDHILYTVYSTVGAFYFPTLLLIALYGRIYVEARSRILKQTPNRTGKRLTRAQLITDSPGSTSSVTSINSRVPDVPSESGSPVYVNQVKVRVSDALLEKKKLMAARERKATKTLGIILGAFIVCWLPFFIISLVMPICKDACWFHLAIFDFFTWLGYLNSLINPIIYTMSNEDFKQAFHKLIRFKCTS
Method: as §1

[3] = molecular target: T3, 5-HT2a recombinant receptor (Homo sapiens, UniProt P28223); assay: Aequorin cell line functional assay, agonist testing; assay type: cell-based; conditions: FIG. 1
T3 construct: expressed in transfected cells
T3 sequence (P28223 whole entry): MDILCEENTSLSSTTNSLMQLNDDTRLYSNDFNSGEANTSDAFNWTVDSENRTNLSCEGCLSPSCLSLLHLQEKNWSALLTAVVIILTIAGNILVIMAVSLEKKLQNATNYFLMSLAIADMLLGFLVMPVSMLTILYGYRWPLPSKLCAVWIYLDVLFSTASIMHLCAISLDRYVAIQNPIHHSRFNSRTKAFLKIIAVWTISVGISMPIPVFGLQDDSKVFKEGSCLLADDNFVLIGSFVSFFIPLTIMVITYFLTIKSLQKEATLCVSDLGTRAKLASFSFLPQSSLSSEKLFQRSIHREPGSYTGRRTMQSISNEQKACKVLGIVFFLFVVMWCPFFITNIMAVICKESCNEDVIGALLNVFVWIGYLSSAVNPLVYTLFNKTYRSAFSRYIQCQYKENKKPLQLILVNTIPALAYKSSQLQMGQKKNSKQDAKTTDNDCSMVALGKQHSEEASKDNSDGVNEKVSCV
Method: (§2) Aequorin cell lines expressing the 5-HT2a, 5-HT2b and 5-HT2c non-edited (ne) recombinant receptors were used to evaluate the functional activity of eltoprazine. Aequorin cells grown 18 h prior to the test in media without antibiotics were detached by gentle flushing with PBS-EDTA (5 mM EDTA), recovered by centrifugation and resuspended in “assay buffer” (DMEM/HAM's F12 with HEPES+0.1% BSA protease free). Cells were incubated at room temperature for at least 4 h with Coelenterazine h (Molecular Probes). The reference agonist used were 5-HT and α-methyl-5-HT. For agonist testing, 50 μl of cell suspension were injected on 50 μl of test compound or reference agonist plated in a 96-well plate. The resulting emission of light was recorded using the Hamamatsu Functional Drug Screening System 6000 (FDSS 6000).

[4] = molecular target: T4, 5-HT2c non-edited (ne) recombinant receptor (Homo sapiens, UniProt P28335); assay: as above; assay type: cell-based; conditions: FIG. 1
T4 construct: expressed in transfected cells
T4 sequence (P28335 33-458): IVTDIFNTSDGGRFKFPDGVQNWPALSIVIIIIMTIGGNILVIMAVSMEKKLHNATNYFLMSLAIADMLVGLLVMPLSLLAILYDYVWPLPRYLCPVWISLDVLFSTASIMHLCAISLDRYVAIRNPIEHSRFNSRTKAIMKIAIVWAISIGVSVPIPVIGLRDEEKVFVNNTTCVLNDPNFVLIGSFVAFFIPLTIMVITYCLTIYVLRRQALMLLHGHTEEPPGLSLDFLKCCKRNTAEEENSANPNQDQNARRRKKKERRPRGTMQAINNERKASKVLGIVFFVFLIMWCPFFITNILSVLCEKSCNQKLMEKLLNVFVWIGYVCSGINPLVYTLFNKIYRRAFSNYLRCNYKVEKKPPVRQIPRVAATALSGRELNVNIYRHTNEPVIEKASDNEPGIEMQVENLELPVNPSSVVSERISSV
Method: as §2

[5] = tested on: 6-OHDA-lesioned rat model of Parkinson's disease; assay: L-DOPA induced dyskinesia (AIM scores) in unilaterally 6-OHDA-lesioned rats; assay type: in vivo; conditions: eltoprazine hydrochloride 0.08, 0.3, 1.25 and 5 mg/kg s.c. 30 min before test; after 21 days L-DOPA 6 mg/kg + benserazide 15 mg/kg i.p.; FIG. 2
Method: (§3) Male Sprague Dawley rats (Elevage Janvier, Le Genest Saint Isle, France) weighing between 220 and 250 g at the beginning of the study are used in these experiments. They are housed under a 12 h light/dark cycle with free access to standard pelleted food and tap water. Animal treatment and experimental procedures are approved by local ethical committees (Regierungspräsidium Darmstadt; Germany).
(§4) Dopamine-denervating lesions are performed on rats anaesthetized with a 5:1 mixture of ketamine and xylazine (1 ml/kg, i.p.). […] The animals' turning behaviour is recorded in an automated rotometer (TSE Rotameter System, TSE-Systems GmbH, Bad Homburg, Germany) over a 90 min period after the intraperitoneal (i.p.) injection of 2.5 mg/kg dexamphetamine sulphate dissolved in saline. […]
In order to evaluate the severity of LID, AIMs are recorded every second day as described by Cenci et al. (1998). […] Each rat is scored on a severity scale from 0 to 4 based on its frequency and persistence (1=occasional; 2=frequent; 3=continuous but interrupted by sensory distraction; 4=continuous, severe and not interrupted by sensory distraction). […]

[6] = tested on: 6-OHDA-lesioned rat model of Parkinson's disease; assay: Turning behaviour induced by high dose of L-DOPA in 6-OHDA-lesioned rats; assay type: in vivo; conditions: eltoprazine 0.3, 1.25 and 5 mg/kg 30 min before test; 180 min rotometer; FIG. 3
Method: as §3, §4
In order to evaluate the effect of eltoprazine on parkinsonian symptoms and its interaction with L-DOPA, rotational behaviour is evaluated. The numbers of ipsilateral and contralateral turns are recorded in an automated rotometer (TSE Rotameter System, TSE-Systems GmbH, Bad Homburg, Germany) over a period of 180 min. […]

Sprague-Dawley rats = assay: Effect of eltoprazine on weight gain and food intake of rats; assay type: in vivo, rat; conditions: vs vehicle
Method: Experimentally naive adult male Sprague-Dawley rats (250-300 g; Janvier, France) were housed in groups of four per cage. Colony room temperature and humidity were maintained respectively at 20±1° C. and 60±3%. Food and water were available ad libitum and the animals were kept under an alternating 12 h/12 h day-night cycle (lights on at 07.00) for at least 6 days before the experiments were started. All experiments were conducted during the light period of the day-night cycle.
(§5) Eltoprazine hydrochloride was dissolved in sterile water. Animals were treated for 2 weeks using Alzet osmotic pumps (2ML2) implanted under the skin on the back delivering constantly eltoprazine solution or using b.i.d. s.c. Treatment. During the treatment, the rats were kept in single cages.
(§6) Group 1: vehicle (osmotic pump; saline) Group 2: eltoprazine 8 mg/kg/day (osmotic pump; in distilled water) Group 3: vehicle (2 daily injections—9 am & 3 pm—s.c.; in distilled water) Group 4: eltoprazine 1 mg/kg (2 daily injections—9 am & 3 pm—s.c.; in distilled water)
Groups 3 and 4 were NOT injected at the weekend, and the weight and food intake were not recorded at the weekend.
Weight of animals and food intake were measured daily for two weeks (with exception of weekends).

[7] = Plasma levels in the rat weight study; assay type: in vivo; conditions: N=8
Method: as §5, §6

5-HT1a receptor = conditions: Schipper et al. 1990; cited from earlier work
5-HT1b receptor = conditions: Schipper et al. 1990; cited from earlier work
[8] = tested on: 5-HT2c (initially designated 5-HT1c); conditions: Schipper et al. 1990; cited from earlier work
patients = conditions: clinical trials in aggressive behaviour (de Koning et al. 1994); cited from earlier work

## c1cc2c(c(N3CCNCC3)c1)OCCO2 [eltoprazine, 1-(2,3-dihydro-1,4-benzodioxin-8-yl)piperazine]
[1]
  functional activity at 5-HT1a receptor: partial agonistic action
[2]
  functional activity at 5-HT1b receptor: partial agonistic action
[3]
  functional activity at 5-HT2a receptor: full agonist
[4]
  functional activity at 5-HT2c receptor: full agonist
[5]
  effect on AIM scores: significantly reverses, in a dose-dependent manner
[6]
  effect on turning behaviour induced by L-DOPA (antiparkinsonian effect of L-DOPA): does not interfere with the antiparkinsonian effect of L-DOPA
Sprague-Dawley rats; 1 mg/kg s.c. b.i.d. injections, 2 weeks (not at weekends), FIG. 5A
  weight gain: delay in weight gain; also recorded: significant effect of treatment
Sprague-Dawley rats; 1 mg/kg s.c. b.i.d. injections, 2 weeks (not at weekends), FIG. 5B
  food intake: reduced food intake; also recorded: significant effect of treatment
Sprague-Dawley rats; osmotic minipump 8 mg/kg/day, 2 weeks, FIG. 4A
  weight gain: delay in weight gain; also recorded: significant effect of treatment
Sprague-Dawley rats; osmotic minipump 8 mg/kg/day, 2 weeks, FIG. 4B
  food intake: reduced food intake; also recorded: significant effect of treatment
[7]; 1 mg/kg s.c. b.i.d. injections
  plasma levels: approx. 55 ng/ml
  plasma levels (range): 48 to 65 ng/mL
[7]; osmotic minipump 8 mg/kg/day
  plasma levels: approx. 110 ng/ml
  plasma levels (range): 86 to 143 ng/mL
5-HT1a receptor
  pharmacological action on 5-HT1a receptor: agonistic effect
5-HT1b receptor
  pharmacological action on 5-HT1b receptor: agonistic effect
[8]
  effect on 5-HT2c: antagonistic
patients
  clinical safety: clinically safe
